# Laboratory results published in US11040056B2, “Benzimidazoles that enhance the activity of oligonucleotides” (The University of North Carolina at Chapel Hill, priority 2018, dated 2021).
# Tests used:
# NIH-3T3-MDR cells = assay: Alamar Blue cytotoxicity assay; format: cell-based; conditions: 2 h exposure, then 24 h, FIG. 1E
# Protocol: FIG. 1B-1E. Effects with SSOs. FIG. 1B Structure of UNC2383. FIG. 1C Compound 2383 enhances SSO effects. Cells were incubated in 24-well plates with 100 nM SSO623 or its mismatched control (MM) for 16 h in DMEM+10% FBS, rinsed and then treated with various concentrations of 2383 for 2 h. The cells were then rinsed and incubation continued for an additional 4 h in DMEM+10% FBS. Cells were rinsed twice in PBS and luciferase activity (RLU) and cell protein determined. The larger round symbol indicates the MM oligonucleotide. Means+/−SE. N=3. FIG. 1D Kinetics of 2383 action. Cells were preloaded with 100 nM SSO623 and then exposed to 2383 for various periods after which the compound was removed. The cells were further incubated and then luciferase and protein determined. The total time of incubation in each case was 6 h. FIG. 1E Cytotoxicity of 2383. HeLa Luc705 or NIH-3T3-MDR cells were exposed to 2383 as in (FIG. 1C) then incubated for 24 h in DMEM plus 10% FBS and tested using the Alamar Blue cytotoxicity assay. Means+/−SE. N=3.
# SSO-mediated luciferase induction assays were conducted as previously described. (18) In short, HeLaLuc705 cells in 24 well culture plates were preincubated with SSO623 followed by brief treatment with the small molecule; at intervals thereafter, luciferase activity and protein content were determined. […] Cytotoxicity of 2383 was monitored using the Alamar Blue assay. […]
# HeLa Luc 705 cells = assay: Confocal microscopy of endomembrane permeability and oligonucleotide localization; format: cell-based; conditions: 2 h
# Protocol: FIG. 5A-5B. Effect on endomembrane permeability. FIG. 5A: HeLa Luc 705 cells (50 000) were seeded into glass-bottom dishes and incubated at 37° C. for attachment. Alexa 488-Dextran 10K (200 μg/mL) or TAMRA SSO 623 (2.5 μM) were added into the medium and the cells incubated for 24 h. Cells were washed with PBS and then placed back in the medium and treated with UNC2383 for 2 h or maintained as controls. Cells were rinsed after drug treatment. Live cells were imaged with an Olympus FV1200 or a Zeiss LSM710 confocal microscope. For the studies with Alexa 488 Dextran, the controls are shown in image panels a and b while cells treated with 10 μM UNC2383 are in image panels c and d. […] Images e and f are composites of TAMRA, Hoechst, and DIC images, and the pink coloration in f indicates overlap of the TAMRA and Hoechst fluorescence. Images are typical of three independent assays. Intensity settings were identical for fluorescence images with or without UNC2383. FIG. 5B quantitates the TAMRA fluorescence in the nucleus for controls versus cells treated with 5 μM UNC2383, as measured using Fiji software, with Hoechst stain used to delineate the nucleus (N=12).
# FIG. 6. Confocal images of compound effects on nuclear distribution of a fluorescent oligonucleotide. […] Nuclei lacking fluorescence are indicated with gray arrows. […]
# FIG. 7A-7B. […] Composite images showing TAMRA fluorescence, GFP, and DIC are provided. […]
# Effects of UNC2383 on endosome stability were monitored in cell culture models as previously described. […] Live cells were imaged by fluorescence confocal microscopy with or without treatment with UNC2383 or its analogs. […] Co-localization of TAMRA labeled SSO 623 with marker proteins was quantitated using Fiji (ImageJ) software and expressed as a Manders' Correlation Coefficient. […] EGFP protein expression was monitored by immunostaining with an anti-EGFP antibody (Abcam) using techniques previously described. (3) EGFP immunostaining was analyzed using a Leica SP2 confocal microscope with acquisition parameters constant throughout the study: images were processed with Adobe Photoshop software. […]
smiles,measurement,setting,value
O=C(Nc1nc2ccccc2n1CCN1CCCC1)c1cc2cc(Cl)ccc2o1 [UNC2383],concentrations showing little toxicity,NIH-3T3-MDR cells,≤ 10 µM
same,relocalization of TAMRA labeled SSO to the nucleus,HeLa Luc 705 cells; 5 μM,partial but substantial relocalization
same,colocalization of TAMRA-SSO with late endosomes and lysosomes (Manders' Correlation Coefficient),"HeLa Luc 705 cells; 5 μM, GFP-Rab7, GFP-LAMP1",substantially reduced
same,release of Alexa 488-Dextran from vesicular entrapment,HeLa Luc 705 cells; 10 μM,partial release
